Data from patent publication US20170211012A1, “METHOD OF […] FROM MICROBES” (priority 2014, published 2017).
Several values for one entry are separate records, joined by “and”; a condition that tells them apart may be missing. Equal values may be shown once.

Test system: Vibrio cholerae
Experiment: Colistin MIC against Vibrio cholerae strains
Assay type: cell-based

Question: Which results are given for colistin?
Answer: Colistin MIC (V. cholerae strain 32-14, O antigen not given): >250 µg/mL; Colistin MIC (V. cholerae strain 33-36, O antigen O-1): >250 µg/mL; Colistin MIC (V. cholerae strain 35-44, O antigen O-1): >250 µg/mL; Colistin MIC (V. cholerae strain 50-1, O antigen O-1): 4 µg/mL and 8 µg/mL; Colistin MIC (V. cholerae strain 51-2, O antigen O-1): 4 µg/mL; Colistin MIC (V. cholerae strain 52-4, O antigen O-1): 4 µg/mL; Colistin MIC (V. cholerae strain 57-11, O antigen O-139): 4 µg/mL; Colistin MIC (V. cholerae strain 58-12, O antigen O-1): 125 µg/mL; Colistin MIC (V. cholerae strain 79-35, O antigen O-1): >250 µg/mL; Colistin MIC (V. cholerae strain 114/98931, O antigen O-1): 125 µg/mL; Colistin MIC (V. cholerae strain 461/99053, O antigen O-1): >250 µg/mL; Colistin MIC (V. cholerae strain 781, O antigen O-1): >250 µg/mL; Colistin MIC (V. cholerae strain 1837, O antigen O-139): >250 µg/mL; Colistin MIC (V. cholerae strain FMU-089933, O antigen O-139): 31.5 µg/mL; Colistin MIC (V. cholerae strain M-702-3, O antigen O-1): >250 µg/mL; Colistin MIC (V. cholerae strain N16117, O antigen O-1): >250 µg/mL; Colistin MIC (V. cholerae strain N16861, O antigen O-1): >250 µg/mL; Colistin MIC (V. cholerae strain NG288/36, O antigen O-139): >250 µg/mL; Colistin MIC (V. cholerae strain NG368/36, O antigen O-139): >250 µg/mL; Colistin MIC (V. cholerae strain NRU-20455, O antigen O-139): 8 µg/mL; Colistin MIC (V. cholerae strain NRU-20461, O antigen O-139): 8 µg/mL and 4 µg/mL; Colistin MIC (V. cholerae strain O-139 Argentina, O antigen O-139): >250 µg/mL
